Values joined by “and” are separate entries in the source; they are usually repeats but may differ in a detail not shown here. Equal values may be shown once. “Also recorded” adds a separate entry of the source. Read-outs that look alike come from different tables or passages of the source.
Tests used:
OATP1B3 = molecular target: T1, OATP1B3 (Homo sapiens, UniProt Q9NPD5); assay: Uptake transporter inhibition assay, OATP1B3 (CCK-8); conditions: for Relative transporter specific accumulation: CCK-8, Table 120
T1 sequence (Q9NPD5 1-702): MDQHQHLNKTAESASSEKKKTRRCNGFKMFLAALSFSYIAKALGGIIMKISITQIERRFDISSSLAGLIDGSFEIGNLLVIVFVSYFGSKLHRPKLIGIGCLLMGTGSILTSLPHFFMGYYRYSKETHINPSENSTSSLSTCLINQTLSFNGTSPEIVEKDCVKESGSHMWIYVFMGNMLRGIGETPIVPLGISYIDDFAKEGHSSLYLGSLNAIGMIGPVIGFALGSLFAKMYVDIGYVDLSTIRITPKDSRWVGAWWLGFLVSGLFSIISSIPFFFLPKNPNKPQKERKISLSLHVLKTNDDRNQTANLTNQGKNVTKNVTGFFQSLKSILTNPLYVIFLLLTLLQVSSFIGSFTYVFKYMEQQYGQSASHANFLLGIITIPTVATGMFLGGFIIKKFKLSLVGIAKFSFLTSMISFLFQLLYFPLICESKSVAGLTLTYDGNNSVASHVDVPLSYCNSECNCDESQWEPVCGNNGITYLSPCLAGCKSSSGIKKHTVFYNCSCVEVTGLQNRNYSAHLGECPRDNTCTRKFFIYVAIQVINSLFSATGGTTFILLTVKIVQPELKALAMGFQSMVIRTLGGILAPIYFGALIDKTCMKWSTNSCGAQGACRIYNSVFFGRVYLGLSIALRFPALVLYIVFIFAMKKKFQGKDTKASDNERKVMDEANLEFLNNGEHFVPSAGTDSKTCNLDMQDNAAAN
Method: Uptake experiments were performed using HEK293 cells stably expressing the respective uptake transporters. The assays were conducted according to the actual SOLVO uptake transporter assay protocols (PR-ASY-UPT-General Protocol for Uptake Transporter Inhibition Assays).
Cells were cultured at 37° C. in a humidified atmosphere containing 5% CO2 and were plated onto standard 96-well tissue culture plates.
Before the experiment, the medium was removed, and the cells were washed twice with 100 μL of pre-warmed (37° C.) assay buffer listed in Table 15. The cells were pre-incubated at 37° C. for 30 minutes in assay buffer containing the test article at appropriate concentrations (Table 16), appropriate solvents for solvent controls and the reference inhibitor for reference inhibitor wells. After the pre-incubation step solutions were removed. Uptake experiments were performed at 37° C. in 50 μL of assay buffer containing the probe substrate and the test article or solvent and controls.
After the experiment, cells were washed twice with 100 μL of appropriate cold buffer and lysed with 150 μL scintillation cocktail. Radiolabeled probe substrate transport was determined by liquid scintillation counting.
Uptake of the probe substrate in control cells provided background activity values for all data points.

[1] = system: orexin/tTA; Tet-O diphtheria toxin A mice (DTA mice); assay type: in vivo, mouse; conditions: 6 h after dosing at ZT12
[2] = Method: Twelve male Wistar Han rats were divided into 4 groups, n=3 per group.
Dose solutions were prepared freshly on the day of study prior to dosing.
The animals were weighed immediately prior to dosing and the dose volume was calculated individually based the obtained body weight and the nominal dose volume. […] The test articles were administered either orally by gavage, or intraperitoneally by injection. The nominal dose volume was 10 mL/kg for both compounds and both routes.
Cage side observation was performed before and after dosing as well as at each scheduled sample collection. The observation included appearance, posture, behavior, morbidity and mortality. Abnormal findings, if any, were recorded in the study notebook and communicated with study director, veterinarian, and Supernus if necessary.
Approximately 100 μL blood was collected at each scheduled time point from jugular veins. The actual sample collection time was within 1 min. of the nominal time for collections prior to or at 1 hour, and within 5% of the nominal time for collections post 1 hour.
The blood samples were placed in pre-labeled micro-centrifuge tubes containing K2EDTA as anticoagulant and kept on ice, and then were processed to plasma within 30 minutes of collection by centrifugation at 4° C., 3000 g for 5 minutes, and then stored at −70±10° C. until analysis by LC-MS/MS.
Plasma concentrations below the LLOQ prior to Tmax were set to zero, and those after Tmax were excluded from PK calculation. The nominal dose and the nominal sample collection time were used for the calculation. The values of plasma concentrations and PK parameters are reported to three significant figures. The average values of each treatment group are presented as mean±SD.

[3] = single IP Compound I-4 3.708 mg/kg, male Wistar Han rats, individual animals
[4] = single IP Compound I-4 3.708 mg/kg, male Wistar Han rats, mean
[5] = single PO Compound I-4 3.708 mg/kg, male Wistar Han rats, individual animals
[6] = single PO Compound I-4 3.708 mg/kg, male Wistar Han rats, mean

OC1(c2ccc(Cl)cc2)c2ccccc2C2=NCCN21 (stereo not drawn) [Compound A, 5-(4-chlorophenyl)-2,3-dihydroimidazo[1,2-b]isoindol-5-ol, reference compound]
Relative transporter specific accumulation (OATP1B3; 3.00 μM nominal): 92.81 ± 3.95 % of control | Relative transporter specific accumulation (OATP1B3; 30.00 μM nominal): 90.63 ± 4.66 % of control | maximum inhibition of OATP1B3-mediated CCK-8 accumulation (OATP1B3; 2-concentration assay, up to 100 μM (Compound A up to 30 μM)): did not inhibited; also recorded: not an in vitro inhibitor | Maximum % inhibition (OATP1B3; OATP1B3, HEK293 cells, CCK-8 (1 μM), NIO: no inhibition observed): NIO | inhibition at 3 μM (OATP1B3; human): 7% | inhibition at 30 μM (OATP1B3; human): 9%

COCCOC1(c2ccc(Cl)cc2)c2ccccc2C2=NCCN21 (stereo not drawn) [Compound I-4]
REM:NR ratios (effect) [1]: decreased REM:NR ratios | W consolidation (W bout duration, number of W bouts) [1]: Compound I-4 at 3 mg/kg consolidated W | body temperature (Tb) [1]: No significant effects on Tb were found | latency to REM (effect) [1]: Compound I-4 at 3 mg/kg significantly (p<0.05) increased the latency to REM | locomotor activity (LMA) [1]: increased significantly overall | total W or NREM time [1]: without any significant effects on total W or NREM | cataplexy (C) time ([1]; Compound I-19 0.3, 1, 3 mg/kg i.p., Compound I-4 0.3, 1, 3 mg/kg p.o., Des 5 mg/kg p.o.): significantly (p<0.05) decreased following Compound I-4 at the two highest doses (1 and 3 mg/kg) | REM time ([1]; same doses): significantly (p<0.05) decreased following Compound I-4 at the two highest doses (1 and 3 mg/kg) | plasma concentration of Compound I-4 ([2]; 0.500 h, single IP Compound I-4 3.708 mg/kg, male Wistar Han rats, individual animals): 90.3 ng/mL and 48.4 ng/mL and 115 ng/mL | plasma concentration of Compound I-4 ([2]; 0.500 h, single IP Compound I-4 3.708 mg/kg, male Wistar Han rats, mean): 84.6 ng/mL | plasma concentration of Compound I-4 ([2]; 0.500 h, single PO Compound I-4 3.708 mg/kg, male Wistar Han rats, mean): 9.01 ng/mL | plasma concentration of Compound I-4 ([2]; 2.00 h, single IP Compound I-4 3.708 mg/kg, male Wistar Han rats, individual animals): 96.7 ng/mL and 85.7 ng/mL and 119 ng/mL | plasma concentration of Compound I-4 ([2]; 2.00 h, single IP Compound I-4 3.708 mg/kg, male Wistar Han rats, mean): 100 ng/mL | plasma concentration of Compound I-4 ([2]; 2.00 h, single PO Compound I-4 3.708 mg/kg, male Wistar Han rats, mean): 6.06 ng/mL | plasma concentration of Compound I-4 ([2]; 4.00 h, single IP Compound I-4 3.708 mg/kg, male Wistar Han rats, individual animals): 54.6 ng/mL and 98.6 ng/mL and 61.1 ng/mL | plasma concentration of Compound I-4 ([2]; 4.00 h, single IP Compound I-4 3.708 mg/kg, male Wistar Han rats, mean): 71.4 ng/mL | plasma concentration of Compound I-4 ([2]; 4.00 h, single PO Compound I-4 3.708 mg/kg, male Wistar Han rats, mean): 2.75 ng/mL | plasma concentration of Compound I-4 ([2]; 8.00 h, single IP Compound I-4 3.708 mg/kg, male Wistar Han rats, mean): 31.7 ng/mL | plasma concentration of Compound I-4 ([2]; 8.00 h, single PO Compound I-4 3.708 mg/kg, male Wistar Han rats, individual animals): 1.40 ng/mL and 1.11 ng/mL and 1.53 ng/mL | plasma concentration of Compound I-4 ([2]; 8.00 h, single PO Compound I-4 3.708 mg/kg, male Wistar Han rats, mean): 1.35 ng/mL | plasma concentration of Compound I-4 ([2]; 24.0 h, single IP Compound I-4 3.708 mg/kg, male Wistar Han rats, individual animals): BQL | plasma concentration of Compound I-4 ([2]; 24.0 h, single PO Compound I-4 3.708 mg/kg, male Wistar Han rats, individual animals): BQL | plasma concentration of Compound I-4 ([2]; […] h, single IP Compound I-4 3.708 mg/kg, male Wistar Han rats, mean): 95.5 ng/mL | plasma concentration of Compound I-4 ([2]; […] h, single PO Compound I-4 3.708 mg/kg, male Wistar Han rats, mean): 6.98 ng/mL | Clinical observation (tolerability) ([2]; male Wistar Han rats, PO and IP, administered dosages): well tolerated | T1/2 of the administered compound ([2]; rat, in vivo, ip): 2.51 h | AUC0-inf of Compound I-4 [2, 3]: 567 ng·h/mL and 597 ng·h/mL | AUC0-last of Compound I-4 [2, 3]: 473 ng·h/mL and 599 ng·h/mL and 546 ng·h/mL | Cmax of Compound I-4 [2, 3]: 120 ng/mL and 98.6 ng/mL and 140 ng/mL | MRT0-inf of Compound I-4 [2, 3]: 4.58 h and 3.48 h | MRT0-last of Compound I-4 [2, 3]: 3.06 h and 4.10 h and 2.77 h | T1/2 of Compound I-4 [2, 3]: 2.90 h and 2.12 h | Tlast of Compound I-4 [2, 3]: 8.00 h | AUC0-inf of Compound I-4 [2, 4]: 582 ng·h/mL | AUC0-last of Compound I-4 [2, 4]: 539 ng·h/mL | Cmax of Compound I-4 [2, 4]: 120 ng/mL | MRT0-inf of Compound I-4 [2, 4]: 4.03 h | MRT0-last of Compound I-4 [2, 4]: 3.31 h | T1/2 of Compound I-4 [2, 4]: 2.51 h | Tlast of Compound I-4 [2, 4]: 8.00 h | Tmax of Compound I-4 [2, 4]: 1.50 h | AUC0-inf of Compound I-4 [2, 5]: 56.4 ng·h/mL | MRT0-inf of Compound I-4 [2, 5]: 2.61 h | MRT0-last of Compound I-4 [2, 5]: 3.86 h and 2.20 h and 4.46 h | T1/2 of Compound I-4 [2, 5]: 1.74 h | Tlast of Compound I-4 [2, 5]: 8.00 h | AUC0-last of Compound I-4 [2, 6]: 25.2 ng·h/mL | Cmax of Compound I-4 [2, 6]: 9.18 ng/mL | MRT0-last of Compound I-4 [2, 6]: 3.51 h | Tlast of Compound I-4 [2, 6]: 8.00 h | Tmax of Compound I-4 [2, 6]: 1.67 h
